In ChEMBL document CHEMBL1139720, “Synthesis and antiproliferative activity of (2R,3R)-disubstituted tetrahydropyrans” (2006):

Tests used:
Assay type in all cases: functional
[1] = system: SW1573; experiment: Antiproliferative activity against human SW1573 cells after 48 hrs by SRB assay; details: SW1573, 48 h
[2] = system: A2780; experiment: Antiproliferative activity against human A2780 cells after 48 hrs by SRB assay; details: A2780, 48 h
[3] = system: WiDr; experiment: Antiproliferative activity against human WiDr cells after 48 hrs by SRB assay

| SMILES | GI50 [1] | GI50 [2] | GI50 [3] | TGI [1] | TGI [2] | TGI [3] | LC50 [2] |
| --- | --- | --- | --- | --- | --- | --- | --- |
| CC(C)(C)[Si](C)(C)O[C@@H]1CCCO[C@@H]1CO | > 100 µM | > 100 µM | > 100 µM | – | – | – | – |
| COC(=O)/C=C/[C@H]1OCCC[C@H]1O[Si](C)(C)C(C)(C)C | > 100 µM | 98 µM | > 100 µM | – | – | – | – |
| CC(C)(C)[Si](C)(C)OC[C@H]1OCCC[C@H]1O[Si](C)(C)C(C)(C)C | > 100 µM | > 100 µM | > 100 µM | – | – | – | – |
| CC(C)(C)[Si](C)(C)O[C@@H]1CCCO[C@@H]1/C=C/C(=O)OCc1ccccc1 | 37 µM | 32 µM | 90 µM | – | – | – | – |
| COC(=O)/C=C/[C@H]1OCCC[C@@H]1O[Si](C)(C)C(C)(C)C | 47 µM | 28 µM | 84 µM | – | – | – | – |
| CC(C)(C)[Si](C)(C)O[C@@H]1CCCO[C@@H]1/C=C\CO | > 100 µM | > 100 µM | > 100 µM | – | – | – | – |
| CC(C)(C)[Si](C)(C)O[C@@H]1CCCO[C@@H]1CC(=O)OCc1ccccc1 | 30 µM | 23 µM | 19 µM | – | – | – | – |
| O=C1C[C@H]2OCCC[C@H]2O1 | > 100 µM | > 100 µM | > 100 µM | – | – | – | – |
| CC(C)(C)[Si](C)(C)O[C@@H]1CCCO[C@@H]1/C=C\C(=O)OCc1ccccc1 | 26 µM | 29 µM | 20 µM | 92 µM | 77 µM | 64 µM | – |
| O=C(C[C@H]1OCCC[C@H]1O)OCc1ccccc1 | > 100 µM | > 100 µM | > 100 µM | – | – | – | – |
| C=C[C@H]1OCCC[C@H]1O[Si](C)(C)C(C)(C)C | > 100 µM | 86 µM | > 100 µM | – | – | – | – |
| O=C(/C=C/[C@H]1OCCC[C@H]1O)OCc1ccccc1 | > 100 µM | > 100 µM | > 100 µM | – | – | – | – |
| CC(C)(C)[Si](C)(C)O[C@@H]1CCCO[C@@H]1/C=C/C(=O)O | > 100 µM | > 100 µM | > 100 µM | – | – | – | – |
| COC(=O)/C=C/[C@H]1OCCC[C@H]1O | > 100 µM | > 100 µM | > 100 µM | – | – | – | – |
| COC(=O)/C=C\[C@H]1OCCC[C@H]1O[Si](C)(C)C(C)(C)C | 6.3 µM | 7.3 µM | 38 µM | 68 µM | 39 µM | – | 86 µM |
| O=C1C=C[C@H]2OCCC[C@H]2O1 | 5.7 µM | 8.3 µM | 39 µM | – | 35 µM | – | – |
